# Data taken from patent publication US8119697B2 (Yissum Research Development Company of the Hebrew …, priority 2002, dated 2012).
# Experiments:
# [1] = tested on: conditioned taste avoidance; experiment: Consumption test of lithium-paired saccharin solution (conditioned taste avoidance); assay type: in vivo; details: pretreatment 5 mg/kg prior to conditioning; 6 hr consumption test on day following final TR test, non-deprived rats
# Protocol: (§1) [drawing 3] • In Experiment 1 were used 29 male rats and in Experiment 2 were used 24 male Sprague-Dawley rats (Charles River Labs, St. Constant, Quebec), which weighed 290-350 gm on the conditioning day. They were individually housed in stainless steel hanging cages in a colony room kept at 21° C. on a 12:12 hr light:dark schedule with the lights on at 07.00 h. Throughout the experiment, the rats were maintained on ad-lib Purina Rat Chow and water. The procedures were approved by the Wilfrid Laurier University Animal Care Committee according to the guidelines of the Canadian Council on Animal Care. • b. The rats were surgically implanted with intra-oral cannulae as described by Parker, L. A. Learn Motiv., 13, 281-303 (1982). The surgical anesthesia preparation included administration of 0.4 mg/kg atropine solution i.p. 15 min prior to ketamine (75 mg/kg, i.p.) combined with xylazine (10 mg/kg, i.p.) which was dissolved in sterile water and administered at a volume of 1 ml/kg. […] On this trial, the water bottles were replaced with tubes containing the saccharin solution and the amounts consumed over a 6 hr period of drinking were recorded. • i. Taste reactivity scoring: A rater blind to the experimental conditions scored the videotapes on two occasions in slow motion (⅕ speed) using the Observer (Noldus, NL) event-recording program on a PC computer. […]
# [2] = tested on: lithium-induced nausea (conditioned rejection reactions); experiment: Taste Reactivity (TR) test: lithium-induced conditioned rejection reactions to saccharin solution; assay type: in vivo, rats; details: for establishment of conditioned rejection reactions: pretreatment 5 mg/kg ip 30 min prior to conditioning trial (saccharin-lithium pairing), versus vehicle pretreatment
# Protocol: as §1, with “ml/kg. On each of three subsequent days during recovery from surgery, the cannulae were flushed with a chlorhexidine rinse (Novlosan; 0.1% chlorhexidine) to prevent infection. • c. […] The rats were randomly assigned to independent groups on the basis of the pretreatment drug and the conditioning drug. In Experiment 1, the groups were as follows: CBD-lithium (n=8), CBD-saline (n=6), Vehicle-lithium (n=8), Vehicle-saline (n=7). In Experiment 2, the groups were as follows: CBD-DMH-lithium (n=6), CBD-DMH-saline (n=6), Vehicle-lithium (n=6), Vehicle-saline (n=6). […] The order of the test trials was counterbalanced among the rats in each group. • d.” for “ml/kg.”
# CB1 receptor = CB1 receptor (Homo sapiens, UniProt P21554); details: cited from earlier work
# [3] = tested on: lithium-induced nausea (conditioned rejection reactions); details: previously reported, rats; cited from earlier work
# [4] = tested on: conditioned taste avoidance; details: previously reported, as pretreatment agent; cited from earlier work
# Chain of CB1 receptor (P21554 whole entry): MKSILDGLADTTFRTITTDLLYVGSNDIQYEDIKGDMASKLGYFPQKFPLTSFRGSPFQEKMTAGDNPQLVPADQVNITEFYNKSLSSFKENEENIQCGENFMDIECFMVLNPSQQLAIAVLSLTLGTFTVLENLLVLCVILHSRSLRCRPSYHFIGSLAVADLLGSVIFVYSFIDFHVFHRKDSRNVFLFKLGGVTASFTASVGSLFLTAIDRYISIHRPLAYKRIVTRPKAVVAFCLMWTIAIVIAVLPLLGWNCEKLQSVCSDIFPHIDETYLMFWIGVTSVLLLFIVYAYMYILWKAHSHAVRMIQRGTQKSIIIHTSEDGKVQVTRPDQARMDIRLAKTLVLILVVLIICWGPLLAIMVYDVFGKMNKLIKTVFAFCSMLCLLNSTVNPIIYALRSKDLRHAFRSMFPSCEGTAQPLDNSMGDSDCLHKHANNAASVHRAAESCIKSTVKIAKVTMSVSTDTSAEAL
Compound,strength of avoidance response (ml saccharin solution consumed) [1],"expression of previously established conditioned rejection reactions ([2]; 5 mg/kg ip 30 min prior to TR test trial, lithium-conditioned male Sprague-Dawley rats, versus vehicle test trial)",establishment of conditioned rejection reactions [2],affinity for the CB1 receptor (CB1 receptor),establishment and expression of conditioned rejection reactions [3],establishment of conditioned taste avoidance in a consumption test [4]
"C=C(C)[C@@H]1CCC(C)=C[C@H]1c1c(O)cc(CCCCC)cc1O [CBD, cannabidiol]",did not modulate the strength of the avoidance response,attenuated the expression of previously established conditioned rejection reactions,attenuated the establishment of conditioned rejection reactions,,,
"C=C(C)C1CCC(C)=CC1c1c(O)cc(C(C)(C)CCCCCC)cc1O (stereo not drawn) [CBD-DMH, cannabidiol-dimethyl heptyl]",did not modulate the strength of the avoidance response,,interfered with the establishment of conditioned rejection reactions,relatively weak affinity,,
Cc1nccn1CC1CCc2c(c3ccccc3n2C)C1=O (stereo not drawn) [ondansetron],,,,,interfered with the establishment and the expression of conditioned rejection reactions,did not interfere with the establishment of conditioned taste avoidance
CCCCCc1cc(O)c2c(c1)OC(C)(C)[C@@H]1CCC(C)=C[C@@H]21 [THC],,,,,interfered with the establishment and the expression of conditioned rejection reactions,
